Read-outs that look alike come from different tables or passages of the source.
Tests used:
SK-Mel-28 melanoma cells = assay: BrdU Cell Proliferation Assay, docetaxel dose response with/without shRNA plasmid electroporation; conditions: Homo sapiens
[1] = test system: CCL-247 colorectal cancer cells; assay: as above; format: cell-based, human; conditions: for IC50: Homo sapiens
Method: Docetaxel storage stock was made in 10 mM, with DMSO as solvent in a biological safety cabinet for sterility purposes. Docetaxel solution was stored in 4° C. fridge away from direct light. For each experiment, docetaxel storage solution was brought to room temperature to thaw, about 30 min before usage. A 5 uM working solution was made and further diluted 1:50. To 9.8 ml complete CCL-247 media, 0.2 ml 5 uM working solution was added so that 10 ul of the solution into final volume of 100 ul will make 10 nM. The 10 nM solution was serially diluted to make 5 nM, 2.5 nM, 1.25 nM, 0.625 nM, and 0.3124 nM.
The CCL-247 media comprises HyClone McCoy's 5A medium 500 ml, FBS 50 ml, and L-Glutamine 10 ml. Under the biological cabinet, the above solutions were mixed into McCoy's 5A medium 500 ml bottle. The mixture was poured at the top part of filter, a vacuum pump was turned on to filter the mixed medium through. The media was stored at 4° C. after use.
The % growth inhibition is calculated as: […]

- IC50 (SK-Mel-28 melanoma cells; SK-MEL-28, 48 h, read-out: Docetaxel IC50 (mean ± SD), SK-Mel-28, + pbi-shRNA^STMN1, 48 h): 0.1 nM
- IC50 (SK-Mel-28 melanoma cells; SK-MEL-28, 48 h, read-out: Docetaxel IC50 (mean ± SD), SK-Mel-28, + scrambled control, 48 h): 1 ± 0.2 nM
- IC50 (SK-Mel-28 melanoma cells; SK-MEL-28, 48 h, read-out: Docetaxel IC50 (mean ± SD), SK-Mel-28, no ShRNA, 48 h): 1.7 ± 2 nM
- IC50 (SK-Mel-28 melanoma cells; SK-MEL-28, 72 h, read-out: Docetaxel IC50 (mean ± SD), SK-Mel-28, + pbi-shRNA^STMN1, 72 h): 0.2 ± 0.1 nM
- IC50 (SK-Mel-28 melanoma cells; SK-MEL-28, 72 h, read-out: Docetaxel IC50 (mean ± SD), SK-Mel-28, + scrambled control, 72 h): 0.9 ± 0.2 nM
- IC50 (SK-Mel-28 melanoma cells; SK-MEL-28, 72 h, read-out: Docetaxel IC50 (mean ± SD), SK-Mel-28, no ShRNA, 72 h): 0.8 ± 0.2 nM
- IC50 (SK-Mel-28 melanoma cells; SK-MEL-28, read-out: IC50 of docetaxel, SK-Mel-28, with STMN1 knockdown (bi-shRNA^STMN1), BrdU, n=3): 0.1 nM
- IC50 (SK-Mel-28 melanoma cells; SK-MEL-28, read-out: IC50 of docetaxel, SK-Mel-28, without STMN1 knockdown, BrdU, n=3): 1.7 ± 0.2 nM
- IC50 ([1]; 48 h, CCL-247, + pbi-shRNA^STMN1, 48 h, read-out: Docetaxel IC50 (mean ± SD)): 0.6 ± 0.4 nM
- IC50 ([1]; 48 h, CCL-247, no ShRNA, 48 h, read-out: Docetaxel IC50 (mean ± SD)): 1.8 ± 0.2 nM
- IC50 ([1]; 72 h, CCL-247, + pbi-shRNA^STMN1, 72 h, read-out: Docetaxel IC50 (mean ± SD)): 0.6 ± 0.4 nM
- IC50 ([1]; 72 h, CCL-247, + scrambled control, 72 h, read-out: Docetaxel IC50 (mean ± SD)): 1 ± 0.6 nM
- IC50 ([1]; 72 h, CCL-247, no ShRNA, 72 h, read-out: Docetaxel IC50 (mean ± SD)): 1 ± 0.4 nM
- IC50 ([1]; CCL-247, with STMN1 knockdown (bi-shRNA^STMN1), BrdU, n=3, read-out: IC50 of docetaxel): 0.6 ± 0.4 nM
- IC50 ([1]; CCL-247, without STMN1 knockdown, BrdU, n=3, read-out: IC50 of docetaxel): 1.8 ± 0.2 nM
Structure (SMILES): CC(=O)O[C@@]12CO[C@@H]1C[C@H](O)[C@@]1(C)C(=O)[C@H](O)C3=C(C)[C@@H](OC(=O)[C@H](O)[C@@H](NC(=O)OC(C)(C)C)c4ccccc4)C[C@@](O)([C@@H](OC(=O)c4ccccc4)[C@H]21)C3(C)C [Docetaxel, docetaxel]
- cell growth compared to control ([1]; CCL-247, docetaxel alone 1.25 nM, 48 hrs): about 70%

From patent US20110286979A1, “CHEMOSENSITIZATION BY BI-FUNCTIONAL SMALL HAIRPIN RNA (bi-shRNA)” (GRADALIS, INC., priority 2010, published 2011)
